Columns and labels:
[1] = tested on: K562 cells; assay: Cell Titer Glo 2.0 cell viability assay, K562; assay type: cell-based; details: Homo sapiens, 72 hours incubation
Procedure: Compounds described herein were screened for toxicity in K562 (human chronic myelogenous leukemia) and SH-SY5Y (human neuroblastoma) cells using a Cell Titer Glo 2.0 assay.
• Promega CellTiter-Glo® 2.0 Cell Viability Assay (cat #G9241) • Corning 384-well TC-treated microplates (cat #3570)
Cells were plated at 500 cells/well (K562 cells) in 45 μL of IMDM supplemented with 10% FBS in a 384-well opaque plate. Wells containing only medium were used as a blank control. Test compounds (e.g., compounds of Formula (I) or (II)) were first serially diluted in DMSO then diluted 1:100 with EIDM+10% FBS. The final concentration of DMSO was 0.1% in each well. The cells were incubated for 72 hours at 37° C. and 5% CO2 before assaying with Cell Titer Glo 2.0 reagent.

[2] = tested on: MYB mRNA; assay: Splicing RT-qPCR assay, MYB canonical (CJ) and alternative (AJ) junction mRNA; assay type: cell-based, human; details: Homo sapiens, 24 h, A673 or K562 cells, 24 hours compound treatment, RT-qPCR; for AC50: read-out: MYB AJ (AC50, increase in alternative junction mRNA); for IC50: read-out: MYB CJ (IC50, decrease in canonical junction mRNA)
Summary of the method: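 Compound-induced exon inclusion is tracked as an increase in AJ transcript alongside the CJ transcript. Cells (A673 normalized to PPIA; K562 to GAPDH or GUSB) are dosed 24 h with a serial dilution topping at 10 uM, ≤0.25% DMSO, then lysed and analysed by RT-qPCR in at least duplicate.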

[3] = tested on: Target C; assay: Protein abundance, HiBit-assay system (Promega), Target C; assay type: cell-based, human; details: Table 6; HiBiT-modified K562 cells, 24 hours
Procedure: Compounds described herein were used to screen for effects on quantitative protein abundance using a HiBit assay system (Promega). Quantitative protein abundance was determined by measuring the protein levels of HiBit-tagged protein targets expressed in cell culture via luminescence using the Nano-Glo HiBiT Lytic Detection System, which uses a split complementation assay format to reconstitute NanoBiT enzyme to generate a luminescent signal. A protein abundance assay was developed such that endogenous protein targets could be modified with the HiBiT peptide tag and their abundance could be assessed after compound treatment. Briefly, K562 cell lines containing a HiBiT-modification were treated with various compounds described herein (e.g., compounds of Formulas (I) or (II)). After treatment for 24 hours, the protein abundance of a specific target was determined by measuring luminescence.
Cells were maintained in EIDM with 10% FBS. Before the assay, cells were diluted with […] growth media (EIDM+1% FBS media) and were seeded in a 384-well plate at a density of 10000 cells/well (for each cell line listed in Table 5). Each compound was prepared as a 10-point 3-fold serial dilution in DMSO with the top dose at a final concentration of 10 μM in the well. Unmodified K562 cells were added at the previously specified density with DMSO to serve as an assay baseline and positive control (PC) and DMSO only with the respective modified cell lines was added to the negative control (NC) columns. Final DMSO concentration was kept at or below 0.25%. Treated cell plates were placed in an incubator at 37° C. with 5% CO2 for 24 hours. After 24 hours, 25 μL of Complete HiBit Lytic reagent was added to each well at room temperature (e.g. one plate requiring 10 mL Lytic Buffer, 100 μL LgBiT Protein, 200 μL Lytic Substrate), shaken for 5 minutes at 600 RPM, then left to sit for 10 minutes for signal to stabilize before reading on a Spark Cyto plate reader (Tecan) with a 500 ms measurement time.
To determine compound effects on protein abundance of each target in Table 6, the percent response for each respective cell line was calculated at each compound concentration as follows:
For the normalized response at each concentration, a four-parameter logistical regression was fit to the data and the response was interpolated at the 50% value to determine a concentration for protein abundance at […] the untreated control.

Row | SMILES | GI50 [1] [nM] | IC50 [2] [nM] | IC50 [3] [nM] | AC50 [2] [nM]
1 | CCn1cc2c(N3CCNCC3)ccc(C(=O)Nc3cc(F)c4nc(C)c(F)n4c3)c2n1 [Compound 565, N-{3,8-difluoro-2-methylimidazo[1,2-a]pyridin-6-yl}-2-ethyl-4-(piperazin-1-yl) indazole-7-carboxamide; trifluoroacetic acid] | 1000 to 10000 | > 10000 | > 10000 | > 10000
2 | Cc1cn2cc(NC(=O)c3ccc(N4CC[C@@H](NCc5cnc(Cl)nc5)C4)c4cn(C)nc34)cc(F)c2n1 [Compound 573, 4-[(3R)-3-{[(2-chloropyrimidin-5-yl)methyl]amino}pyrrolidin-1-yl]-N-{8-fluoro-2-methylimidazo[1,2-a]pyridin-6-yl}-2-methylindazole-7-carboxamide] | 1000 to 10000 | 100 to 1000 | > 10000 | 100 to 1000
3 | CCn1cc2c(N3CCNCC3)ccc(C(=O)Nc3cc(F)c4ncccc4c3)c2n1 [Compound 575] | 100 to 1000 | > 10000 | > 10000 | > 10000

The next lines start with results.

Row | GI50 [1] [nM] | IC50 [2] [nM] | IC50 [3] [nM] | SMILES | AC50 [2] [nM]
4 | 100 to 1000 | 100 to 1000 | 1000 to 10000 | CCn1cc2c(N3CCNCC3)ccc(C(=O)Nc3cn4cc(C)nc4c(Oc4ccccc4)n3)c2n1 [Compound 566, 2-ethyl-N-{2-methyl-8-phenoxyimidazo[1,2-a]pyrazin-6-yl}-4-(piperazin-1-yl) indazole-7-carboxamide] | 100 to 1000
5 | 100 to 1000 | 1000 to 10000 | 1000 to 10000 | Cc1cn2cc(NC(=O)c3ccc(N4CC[C@@H](NC56CC(C5)C6)C4)c4cn(C)nc34)cc(F)c2n1 [Compound 568, 4-[(3R)-3-{bicyclo[1.1.1]pentan-1-ylamino}pyrrolidin-1-yl]-N-{8-fluoro-2-methylimidazo[1,2-a]pyridin-6-yl}-2-methylindazole-7-carboxamide] | 1000 to 10000
6 | 100 to 1000 | < 100 | 1000 to 10000 | CCn1cc2c(N3CCC(NC4CC4)C3)cc(F)c(C(=O)Nc3cc(F)c4nc(C)cn4c3)c2n1 (centres unmarked) [Compound 569, 4-[3-(cyclopropylamino)pyrrolidin-1-yl]-2-ethyl-6-fluoro-N-{8-fluoro-2-methylimidazo[1,2-a]pyridin-6-yl}indazole-7-carboxamide] | < 100
7 | 100 to 1000 | < 100 | 1000 to 10000 | Cc1cn2cc(NC(=O)c3c(F)cc(N4CC[C@@H](NC5CC5)C4)c4cn(C)nc34)cc(F)c2n1 [Compound 571, 4-[(3R)-3-(cyclopropylamino)pyrrolidin-1-yl]-6-fluoro-N-{8-fluoro-2-methylimidazo[1,2-a]pyridin-6-yl}-2-methylindazole-7-carboxamide] | < 100
8 | 100 to 1000 | 100 to 1000 | > 10000 | Cc1cn2cc(NC(=O)c3ccc(N4CCC(C)(NC(C)C)C4)c4cn(C)nc34)cc(F)c2n1 (centres unmarked) [Compound 574] | 100 to 1000
